Data set [1] is described as follows: Crystallisation optimisation: slurries in acetonitrile and isopropanol, epimers in solution. It is filed as physicochemical. The note with it: 20° C., 200 mg 33:67 (R):(S) mixture. On the procedure:
The enrichment provided by acetonitrile and isopropanol were evaluated at a range of concentrations and temperatures (see Table 2). Two types of experiments were conducted: simple slurries (20° C.) in different volumes and slurries/recrystallisations at 80° C. For the experiments 200 mg of the diastereomeric mixture (33:67 (R):(S)) was suspended in the solvents and volume indicated below and optionally heated to reflux and cooled to 20° C. The suspensions were stirred overnight and isolated. The relative proportions of the two epimers present in both the solution and in the solid cake were determined by HPLC.

Data set [2] in a line: Solubility in mixtures of polar organic solvents with water. It is filed as physicochemical. From the text:
It has recently been discovered that the (S)-epimer 3 of gemcitabine-[phenyl-benzoxy-L-alaninyl)]-phosphate has sufficient solubility in mixtures of a number of polar organic solvents with water to render it suitable for formulation and administration as a therapeutic agent. […] In certain solvent mixtures the difference in solubility between the (S)-epimer and the (R)-epimer is over 100 fold. It is expected therefore that more clinically effective, practical and patient friendly administration methods can be developed using the (S)-epimer than can be developed using the (R)-epimer or using the mixture. It is thus desirable to be able to provide gemcitabine-[phenyl-benzoxy-L-alaninyl)]-(S)-phosphate 3 in substantially diastereoisomerically pure form.

Data set [3] can be described thus: Solvent screening: amounts of the two epimers in solution after slurrying NUC-1031 mixture. It is filed as physicochemical. As to conditions: for epimer in solution: 33:67 (R):(S) mixture in 1 mL, stirred overnight. On the procedure: First a solvent screening was conducted with 17 different solvents (see Table 1). Approximately 25 mg of a diastereomeric mixture (33:67 (R):(S)) of NUC-1031 was suspended in the listed solvents (1 mL) and stirred overnight. In case dissolution occurred more solid was added. The suspensions were sedimented and the relative amounts of the two diastereoisomers in solution was determined by HPLC.

Data set [4] is described as follows: Crystallisation optimisation: slurries in acetonitrile and isopropanol, epimers in solution. The class given is physicochemical. As to conditions: 83° C. (heated to reflux, cooled to 20° C.), 200 mg 33:67 (R):(S) mixture.
In data set [5] the test system is isolated human hepatic cells. Put plainly: Half-life on incubation with isolated human hepatic cells. The class given is in vitro ADME. From the text:
The longer half-life associated with (R)-isomer indicates a lower intrinsic clearance and should result in a different pharmacokinetic and pharmacodynamic profile to the (S)-isomer which may offer some benefits.

Data set [6] can be described thus: Solubility in water. The class given is physicochemical. The note with it: regardless of salt content or pH. An excerpt:
It also has implications for the development of efficient manufacturing processes which will allow NUC-1031 to be produced cost effectively.

For `C[C@H](N[P@@](=O)(OC[C@H]1O[C@@H](n2ccc(N)nc2=O)C(F)(F)C1O)Oc1ccccc1)C(=O)OCc1ccccc1` (single isomer, unassigned; epimer 2) [(R)-epimer], the epimer in solution in data set [1] (ACN solution, 5 mL) came out at 0.67 mg/mL; in data set [1] (ACN solution, 10 mL), 0.59 mg/mL; in data set [1] (ACN solution, 15 mL) it was 0.63 mg/mL; in data set [1] (IPA solution, 5 mL), 0.77 mg/mL; in data set [1] (IPA solution, 10 mL), 0.77 mg/mL; in data set [1] (IPA solution, 15 mL), 0.58 mg/mL. For the same compound, the epimer in solution in data set [3] (solvent ACN) turned out to be 1.1 mg/mL; in data set [3] (solvent EtOAc), 0.7 mg/mL; in data set [3] (solvent EtOH), 4.9 mg/mL; in data set [3] (solvent H2O), 0.5 mg/mL; in data set [3] (solvent IPA) it was 1.6 mg/mL; in data set [3] (solvent MEK) it was 0.9 mg/mL. Moreover, the epimer in solution was determined as 0.7 mg/mL in data set [3] (solvent MIBK); 22.8 mg/mL in data set [3] (solvent MeOH); 0.6 mg/mL in data set [3] (solvent MeTHF); 0.1 mg/mL in data set [3] (solvent TBME); 3.0 mg/mL in data set [3] (solvent THF); 2.2 mg/mL in data set [3] (solvent acetone). The epimer in solution in data set [3] (solvent iPrOAc) came to 0.6 mg/mL; in data set [3] (solvent nBuOH) it was 1.6 mg/mL; in data set [3] (solvent nPrOH), 2.2 mg/mL; in data set [3] (solvent nheptane) it was 0.4 mg/mL; in data set [3] (solvent toluene), 0.2 mg/mL; in data set [4] (ACN solution, 5 mL) it was 1.01 mg/mL. Besides, the epimer in solution in data set [4] (ACN solution, 10 mL) came out at 1.09 mg/mL; in data set [4] (ACN solution, 15 mL), 1.19 mg/mL; in data set [4] (IPA solution, 5 mL), 1.42 mg/mL; in data set [4] (IPA solution, 10 mL), 3.38 mg/mL. Further, the “solubility compared with the (S)-epimer” value in data set [2] (mixtures of polar organic solvents with water) is given as “considerably lower”. Moreover, the “half-life relative to that of the (S)-epimer” value in data set [5] is “four times”.
`C[C@H](N[P@](=O)(OC[C@H]1O[C@@H](n2ccc(N)nc2=O)C(F)(F)C1O)Oc1ccccc1)C(=O)OCc1ccccc1` (single isomer, unassigned; epimer 2) [(S)-epimer]: the epimer in solution in data set [1] (ACN solution, 5 mL) stood at 9.04 mg/mL; in data set [1] (ACN solution, 10 mL), 8.85 mg/mL; in data set [1] (ACN solution, 15 mL) it was 9.74 mg/mL; in data set [1] (IPA solution, 5 mL) it was 17.75 mg/mL; in data set [1] (IPA solution, 10 mL) it was 12.98 mg/mL; in data set [1] (IPA solution, 15 mL), 7.16 mg/mL. Moreover, the epimer in solution in data set [3] (solvent ACN) was 10.0 mg/mL; in data set [3] (solvent EtOAc) it was 1.1 mg/mL; in data set [3] (solvent EtOH), 15.7 mg/mL; in data set [3] (solvent H2O), 0.9 mg/mL; in data set [3] (solvent IPA) it was 13.0 mg/mL; in data set [3] (solvent MEK), 3.2 mg/mL. The epimer in solution in data set [3] (solvent MIBK) was 1.0 mg/mL; in data set [3] (solvent MeOH) it was 35.1 mg/mL; in data set [3] (solvent MeTHF) it was 1.2 mg/mL; in data set [3] (solvent TBME), 0.1 mg/mL; in data set [3] (solvent THF), 6.6 mg/mL; in data set [3] (solvent acetone), 7.7 mg/mL. Moreover, the epimer in solution in data set [3] (solvent iPrOAc) came out at 0.6 mg/mL; in data set [3] (solvent nBuOH) it was 14.4 mg/mL; in data set [3] (solvent nPrOH) it was 10.8 mg/mL; in data set [3] (solvent nheptane), 0.4 mg/mL; in data set [3] (solvent toluene) it was 0.7 mg/mL; in data set [4] (ACN solution, 5 mL), 11.03 mg/mL. The epimer in solution in data set [4] (ACN solution, 10 mL) was found to be 11.00 mg/mL; in data set [4] (ACN solution, 15 mL), 10.67 mg/mL; in data set [4] (IPA solution, 5 mL) it was 18.20 mg/mL; in data set [4] (IPA solution, 10 mL), 12.83 mg/mL. Further, the “difference in solubility between the (S)-epimer and the (R)-epimer” value in data set [2] (in certain solvent mixtures) is given as “over 100 fold”. In data set [3] (in all solvents tested), the “solubility compared with the (R)-epimer” value is listed as “higher solubility”.
Consider `C[C@H](NP(=O)(OC[C@H]1O[C@@H](n2ccc(N)nc2=O)C(F)(F)C1O)Oc1ccccc1)C(=O)OCc1ccccc1` (stereo partly shown) [NUC-1031], for which the solubility in water result in data set [6] was “essentially insoluble in water”.

The values above are taken from US10669300B2, “Methods of separating gemcitabine-phosphate diastereoisomers” (NuCana plc, priority 2014, dated 2020).
